Some results are limits rather than exact numbers.

20 molecules from ChEMBL document CHEMBL4308907, “Pyrrolidinone-bearing methylated and halogenated benzenesulfonamides as inhibitors of carbonic anhydrases” (Bioorg Med Chem, 2019) can be followed below.

The target in assay [1] is Carbonic anhydrase 4 (Homo sapiens, UniProt P22748). The assay is described as follows: Binding affinity to recombinant human CA4 by DSF-based fluorescence thermal shift assay.
Assay [2] deals with Carbonic anhydrase 5B, mitochondrial (Homo sapiens, UniProt Q9Y2D0). Briefly: Binding affinity to recombinant full length N-terminal His6x-tagged human CA5B expressed in Escherichia coli Rosetta 2 (DE3) by DSF-based fluorescence thermal shift assay.
Assay [3] has as its target Carbonic anhydrase 9 (Homo sapiens, UniProt Q16790). The assay is described as follows: Binding affinity to recombinant human CA9 by DSF-based fluorescence thermal shift assay.
In assay [4] the target is Carbonic anhydrase 2 (Homo sapiens, UniProt P00918). Briefly: Binding affinity to recombinant human CA2 by DSF-based fluorescence thermal shift assay.
Assay [5] addresses Carbonic anhydrase 3 (Homo sapiens, UniProt P07451). The assay is described as follows: Binding affinity to recombinant N-terminal His6x-tagged human CA3 (4 to 260 residues) expressed in Escherichia coli BL21(DE3) by DSF-based fluorescence thermal shift assay.
The target of assay [6] is Carbonic anhydrase 6 (Homo sapiens, UniProt P23280). The assay is described as follows: Binding affinity to recombinant human CA6 by DSF-based fluorescence thermal shift assay.
Assay [7] addresses Carbonic anhydrase 12 (Homo sapiens, UniProt O43570). Briefly: Binding affinity to recombinant human CA12 by DSF-based fluorescence thermal shift assay.
For assay [8], the target named is Carbonic anhydrase 13 (Homo sapiens, UniProt Q8N1Q1). The assay is described as follows: Binding affinity to recombinant human CA13 by DSF-based fluorescence thermal shift assay.
The target of assay [9] is Carbonic anhydrase 7 (Homo sapiens, UniProt P43166). The assay is described as follows: Binding affinity to recombinant human CA7 by DSF-based fluorescence thermal shift assay.
The target in assay [10] is Carbonic anhydrase 1 (Homo sapiens, UniProt P00915). Briefly: Binding affinity to recombinant human CA1 by DSF-based fluorescence thermal shift assay.
In assay [11] the target is Carbonic anhydrase 14 (Homo sapiens, UniProt Q9ULX7). The assay is described as follows: Binding affinity to recombinant N-terminal His6x-tagged human CA14 (20 to 280 residues) catalytic domain expressed in Escherichia coli Rosetta 2 (DE3) by DSF-based fluorescence thermal shift assay.
Carbonic anhydrase 14, sequence (Q9ULX7 whole entry, the tested form may be a part): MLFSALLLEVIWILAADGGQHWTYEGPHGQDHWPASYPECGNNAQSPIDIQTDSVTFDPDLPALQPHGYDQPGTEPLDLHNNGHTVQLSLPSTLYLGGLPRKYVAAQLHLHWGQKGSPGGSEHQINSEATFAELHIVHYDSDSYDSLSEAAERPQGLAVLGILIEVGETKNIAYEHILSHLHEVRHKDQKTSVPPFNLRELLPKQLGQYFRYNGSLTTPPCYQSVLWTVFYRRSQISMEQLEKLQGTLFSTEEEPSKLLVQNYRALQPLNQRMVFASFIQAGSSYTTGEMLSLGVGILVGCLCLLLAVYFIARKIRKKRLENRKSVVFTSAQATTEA

Carbonic anhydrase 7, sequence (P43166 whole entry): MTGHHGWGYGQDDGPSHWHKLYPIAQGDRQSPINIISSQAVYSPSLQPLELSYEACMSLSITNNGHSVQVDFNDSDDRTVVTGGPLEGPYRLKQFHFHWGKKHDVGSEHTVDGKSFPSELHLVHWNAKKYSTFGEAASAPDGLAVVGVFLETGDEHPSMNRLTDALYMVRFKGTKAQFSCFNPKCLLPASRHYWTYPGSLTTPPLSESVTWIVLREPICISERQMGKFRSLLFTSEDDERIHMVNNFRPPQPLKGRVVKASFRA
Carbonic anhydrase 5B, mitochondrial, sequence (Q9Y2D0 whole entry): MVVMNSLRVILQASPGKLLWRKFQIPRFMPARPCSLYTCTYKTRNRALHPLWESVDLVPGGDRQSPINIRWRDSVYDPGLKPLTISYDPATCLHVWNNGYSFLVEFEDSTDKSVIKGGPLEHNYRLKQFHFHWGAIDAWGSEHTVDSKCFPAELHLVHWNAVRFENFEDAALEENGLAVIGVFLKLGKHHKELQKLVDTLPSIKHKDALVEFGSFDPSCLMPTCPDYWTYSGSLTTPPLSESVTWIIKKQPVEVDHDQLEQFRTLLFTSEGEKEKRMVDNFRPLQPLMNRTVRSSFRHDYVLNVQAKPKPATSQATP
Carbonic anhydrase 12, sequence (O43570 whole entry): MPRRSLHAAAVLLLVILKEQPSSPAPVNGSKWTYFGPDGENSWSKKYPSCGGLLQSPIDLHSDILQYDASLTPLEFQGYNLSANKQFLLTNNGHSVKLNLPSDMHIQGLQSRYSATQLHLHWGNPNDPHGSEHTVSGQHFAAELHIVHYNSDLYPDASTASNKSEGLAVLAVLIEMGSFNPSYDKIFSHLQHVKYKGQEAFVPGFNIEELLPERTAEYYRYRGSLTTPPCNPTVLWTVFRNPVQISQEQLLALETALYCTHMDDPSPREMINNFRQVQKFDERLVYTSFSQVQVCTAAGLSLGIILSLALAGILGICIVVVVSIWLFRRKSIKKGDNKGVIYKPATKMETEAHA
Carbonic anhydrase 3, sequence (P07451 whole entry, the tested form may be a part): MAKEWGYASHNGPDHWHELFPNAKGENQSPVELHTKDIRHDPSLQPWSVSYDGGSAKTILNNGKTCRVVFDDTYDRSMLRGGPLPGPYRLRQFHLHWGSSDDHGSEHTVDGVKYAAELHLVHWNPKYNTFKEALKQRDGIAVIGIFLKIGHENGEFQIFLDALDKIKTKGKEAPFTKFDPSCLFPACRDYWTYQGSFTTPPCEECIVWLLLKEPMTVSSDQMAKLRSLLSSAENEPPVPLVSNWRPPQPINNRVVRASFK
Carbonic anhydrase 4, sequence (P22748 whole entry): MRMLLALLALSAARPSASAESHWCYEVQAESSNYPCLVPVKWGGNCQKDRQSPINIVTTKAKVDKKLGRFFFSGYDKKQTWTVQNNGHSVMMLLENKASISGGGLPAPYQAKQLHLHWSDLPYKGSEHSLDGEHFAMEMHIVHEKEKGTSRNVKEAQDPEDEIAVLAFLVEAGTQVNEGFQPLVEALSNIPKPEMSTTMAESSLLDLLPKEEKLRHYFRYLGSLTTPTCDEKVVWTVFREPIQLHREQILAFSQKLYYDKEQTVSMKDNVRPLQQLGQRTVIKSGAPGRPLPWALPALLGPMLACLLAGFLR
Carbonic anhydrase 1, sequence (P00915 whole entry, the tested form may be a part): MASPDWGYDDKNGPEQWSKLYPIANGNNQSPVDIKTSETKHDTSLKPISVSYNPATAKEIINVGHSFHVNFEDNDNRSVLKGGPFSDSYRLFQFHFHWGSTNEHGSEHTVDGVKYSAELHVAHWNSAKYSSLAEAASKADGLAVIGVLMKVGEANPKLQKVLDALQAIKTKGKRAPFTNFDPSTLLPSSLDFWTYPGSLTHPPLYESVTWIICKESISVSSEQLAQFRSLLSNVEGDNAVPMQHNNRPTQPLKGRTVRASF
Carbonic anhydrase 13, sequence (Q8N1Q1 whole entry): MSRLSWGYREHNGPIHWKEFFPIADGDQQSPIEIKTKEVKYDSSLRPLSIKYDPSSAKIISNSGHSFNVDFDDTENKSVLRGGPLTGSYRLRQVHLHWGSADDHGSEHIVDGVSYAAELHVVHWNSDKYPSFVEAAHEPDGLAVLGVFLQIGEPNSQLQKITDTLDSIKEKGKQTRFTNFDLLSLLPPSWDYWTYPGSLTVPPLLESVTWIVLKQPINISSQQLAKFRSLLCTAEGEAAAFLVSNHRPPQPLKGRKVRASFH
Carbonic anhydrase 6, sequence (P23280 whole entry): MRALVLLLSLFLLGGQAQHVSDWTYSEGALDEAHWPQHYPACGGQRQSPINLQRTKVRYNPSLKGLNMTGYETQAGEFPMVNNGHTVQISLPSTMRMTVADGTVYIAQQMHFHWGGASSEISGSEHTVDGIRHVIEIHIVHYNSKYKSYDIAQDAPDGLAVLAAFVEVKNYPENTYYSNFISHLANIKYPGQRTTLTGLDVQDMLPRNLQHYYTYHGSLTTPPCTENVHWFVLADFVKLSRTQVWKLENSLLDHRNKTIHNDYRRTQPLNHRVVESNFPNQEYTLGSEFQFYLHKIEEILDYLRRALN

In the case of `Cc1cc(C)cc(N2CC(C(=O)O)CC2=O)c1` (centres undefined), the Kd in [1], in [2], in [3], in [4], in assay [5] and in [6] was no less than 200000 nM throughout. The Kd in assay [7], in [8], in assay [9] and in [10] was no less than 200000 nM in each case.
On to `Cc1cc(N2CC(C(=O)O)CC2=O)cc(C)c1S(=O)(=O)Cl` (centres undefined), for which the Kd in assay [1], in [2], in assay [3], in assay [4], in [5] and in [6] was no less than 200000 nM each time. Also, the Kd in assay [7], in assay [8], in assay [9] and in assay [10] was no less than 200000 nM each time.
As for `Cc1cc(N2CC(C(=O)N/N=C/c3ccc(Br)cc3)CC2=O)cc(C)c1S(N)(=O)=O` (centres undefined), the Kd in [1] was 20000 nM; in [2], 630 nM; in assay [3], 2500 nM; in [4] it was 2900 nM; in [5], no less than 200000 nM; in [6], 18000 nM. Moreover, the Kd in assay [7] stood at 33000 nM; in [8], 33000 nM; in assay [9] it was 37000 nM; in [10] it was 2500 nM.
Consider `Cc1cc(S(N)(=O)=O)c(C)cc1N1CC(C(=O)N/N=C/c2ccccc2)CC1=O` (centres undefined), for which the Kd in assay [1] was 7600 nM; in assay [2], 28 nM; in assay [3] it was 1400 nM; in [4], 1300 nM; in assay [5], no less than 200000 nM; in assay [6], 9600 nM. Moreover, the Kd in assay [7] was 9300 nM; in assay [8] it was 420 nM; in [9], 1900 nM; in assay [11], 470 nM; in assay [10] it was 7100 nM.
Regarding `NS(=O)(=O)c1ccc(N2CC(C(=O)O)CC2=O)cc1` (centres undefined), the Kd was 2500 nM in [1]; 4700 nM in assay [2]; 330 nM in assay [3]; 500 nM in [4]; no less than 200000 nM in assay [5]; 6700 nM in assay [6]. Further, the Kd was determined as 2000 nM in assay [7], 460 nM in assay [9], 720 nM in assay [11] and 4200 nM in assay [10].
As for `Cc1cc(C)n(NC(=O)C2CC(=O)N(c3cc(C)c(S(N)(=O)=O)c(C)c3)C2)n1` (centres undefined), the Kd in assay [1] is 2000 nM; in [2], 500 nM; in assay [3], 2000 nM; in [4], 2000 nM; in assay [5] it was no less than 200000 nM; in assay [6], 29000 nM. In addition, the Kd in assay [7] amounted to 67000 nM; in assay [8], 8300 nM; in [9], 33000 nM; in assay [10], 2900 nM.
With `Cc1cc(S(N)(=O)=O)c(C)cc1N1CC(C(=O)NN)CC1=O` (centres undefined), the Kd in [1] was 14000 nM; in assay [2], 660 nM; in [3], 9000 nM; in assay [4] it was 8100 nM; in [5], no less than 200000 nM; in assay [6], 24000 nM. Further, the Kd stood at 21000 nM in [7]; 2800 nM in assay [8]; 4400 nM in [9]; 4000 nM in [11]; 58000 nM in [10].
As for `Cc1cc(N2CC(C(=O)NN)CC2=O)c(Cl)c(C)c1S(N)(=O)=O` (centres undefined), the Kd in [1] is 500 nM; in [2], 140 nM; in assay [3] it was 330 nM; in assay [4] it was 140 nM; in assay [5], no less than 200000 nM; in [6], 4800 nM. Moreover, the Kd in assay [8] was determined as 200 nM; in assay [9], 100 nM; in assay [11], 40 nM; in assay [10], 2500 nM.
On to `COC(=O)C1CC(=O)N(c2cc(C)c(S(N)(=O)=O)cc2C)C1` (centres undefined), for which the Kd is 10000 nM in [1]; 180 nM in assay [2]; 1600 nM in assay [3]; 1600 nM in assay [4]; no less than 200000 nM in assay [5]; 29000 nM in assay [6]. The Kd in assay [7] came to 12000 nM; in [8], 580 nM; in assay [9] it was 31 nM; in assay [11], 840 nM; in assay [10], 11000 nM.
Regarding `Cc1cc(N2CC(C(=O)N/N=C/c3ccc(Br)cc3)CC2=O)c(Cl)c(C)c1S(N)(=O)=O` (centres undefined), the Kd was 340 nM in [1]; 7.7 nM in assay [2]; 200 nM in assay [3]; 50 nM in [4]; no less than 200000 nM in assay [5]; 920 nM in [6]. Besides, the Kd was 1400 nM in [7], 67 nM in [8], 63 nM in assay [9] and 560 nM in assay [10].
With `Cc1cc(N2CC(C(=O)N/N=C/c3ccc([N+](=O)[O-])cc3)CC2=O)c(Cl)c(C)c1S(N)(=O)=O` (centres undefined), the Kd in assay [1] was 480 nM; in assay [2], 18 nM; in [3], 100 nM; in [4] it was 50 nM; in [5], no less than 200000 nM; in assay [6], 810 nM. For the same molecule, the equilibrium dissociation constant (Kd) in assay [7] turned out to be 1400 nM; in [8] it was 56 nM; in assay [9], 43 nM; in assay [10] it was 330 nM.
As for `COc1ccc(/C=N/NC(=O)C2CC(=O)N(c3cc(C)c(S(N)(=O)=O)c(C)c3)C2)cc1` (centres undefined), the Kd was 2200 nM in [1]; 670 nM in assay [2]; 2000 nM in assay [3]; 2000 nM in [4]; no less than 200000 nM in assay [5]; 14000 nM in assay [6]. Moreover, the Kd in assay [7] stood at 18000 nM; in assay [8] it was 21000 nM; in assay [9], 18000 nM; in assay [10], 2000 nM.
In the case of `Cc1cc(N2CC(c3n[nH]c(=S)n3-c3ccccc3)CC2=O)cc(C)c1S(N)(=O)=O` (centres undefined), the Kd was 7000 nM in assay [1]; 770 nM in [2]; 1400 nM in [3]; 2000 nM in assay [4]; no less than 200000 nM in assay [5]; 41000 nM in assay [6]. The Kd worked out at 10000 nM in assay [7], 2000 nM in assay [8], 5400 nM in assay [9] and 2500 nM in assay [10].
For the molecule `Cc1cc(N2CC(C(=O)N/N=C/c3ccc([N+](=O)[O-])cc3)CC2=O)cc(C)c1S(N)(=O)=O` (centres undefined), the Kd was 4700 nM in [1]; 400 nM in [2]; 2000 nM in assay [3]; 1700 nM in assay [4]; no less than 200000 nM in assay [5]; 10000 nM in assay [6]. Also, the Kd in assay [7] is 22000 nM; in assay [8], 17000 nM; in [9], 33000 nM; in [10], 1000 nM.
Consider `COC(=O)C1CC(=O)N(c2ccc(S(N)(=O)=O)cc2)C1` (centres undefined), for which the Kd in [1] was 1500 nM; in [2] it was 3300 nM; in assay [3] it was 170 nM; in [4] it was 150 nM; in assay [5], no less than 200000 nM; in assay [6] it was 94 nM. Besides, the Kd in [7] was 4000 nM; in assay [8], 1100 nM; in [9] it was 130 nM; in [11], 96 nM; in assay [10], 1000 nM.
Consider `Cc1cc(N2CC(c3n[nH]c(=S)o3)CC2=O)cc(C)c1S(N)(=O)=O` (centres undefined), for which the Kd in assay [1] is 6900 nM; in assay [2] it was 2000 nM; in [3], 3300 nM; in assay [4] it was 7700 nM; in [5], no less than 200000 nM; in assay [6] it was 50000 nM. For the same molecule, the Kd in [7] was no less than 200000 nM; in assay [8] it was no less than 200000 nM; in [9], 20000 nM; in [10] it was 10000 nM.
In the case of `Cc1cc(N2CC(C(=O)N/N=C/c3ccc(Cl)cc3)CC2=O)c(Cl)c(C)c1S(N)(=O)=O` (centres undefined), the Kd in assay [1] is 510 nM; in assay [2], 3.8 nM; in assay [3], 91 nM; in assay [4], 100 nM; in assay [5], no less than 200000 nM; in assay [6] it was 650 nM. Besides, the Kd in assay [7] amounted to 2000 nM; in assay [8], 200 nM; in assay [9], 35 nM; in [10], 670 nM.
As to `Cc1cc(N2CC(C(=O)NNC(=S)Nc3ccccc3)CC2=O)cc(C)c1S(N)(=O)=O` (centres undefined), the Kd in assay [1] is 6900 nM; in assay [2], 770 nM; in assay [3] it was 1400 nM; in assay [4], 1100 nM; in [5], no less than 200000 nM; in assay [6] it was no less than 200000 nM. In addition, the Kd is 5000 nM in assay [7], 1000 nM in assay [8], 6500 nM in [9] and 910 nM in [10].
Regarding `Cc1cc(N2CC(C(=O)N/N=C/c3ccc(Cl)cc3)CC2=O)cc(C)c1S(N)(=O)=O` (centres undefined), the Kd is 18000 nM in [1]; 670 nM in assay [2]; 3300 nM in [3]; 2000 nM in assay [4]; no less than 200000 nM in assay [5]; 14000 nM in assay [6]. For the same molecule, the Kd in assay [7] was no less than 200000 nM; in [8], no less than 200000 nM; in [9], no less than 200000 nM; in assay [10], 1700 nM.
Turning to `Cc1cc(N2CC(C(=O)NN3CC(C(=O)O)CC3=O)CC2=O)cc(C)c1S(N)(=O)=O` (centres undefined), the Kd in [1] was 9100 nM; in assay [2], 7700 nM; in assay [3] it was 4000 nM; in [4], 7100 nM; in assay [5], no less than 200000 nM; in assay [6], 83000 nM. In addition, the dissociation constant Kd in assay [7] was determined as 22000 nM; in [8], 6700 nM; in assay [9], 33000 nM; in assay [10], 13000 nM.
